Measured values reported in US11207291B2, “Antimicrobial compositions comprising cannabinoids and methods of using the same” (Graphium Biosciences, Inc., priority 2017, dated 2021).
In brackets after ≈: the same amount, converted by molar mass. Like-named read-outs stand apart in the source and are kept apart here.

Key:
[1] = test system: Enterococcus faecalis (VRE); test: microbe, parasite or virus in culture; type: cell-based
[2] = test system: Staphylococcus aureus (MSSA); test: Broth microdilution MIC, aerobic bacteria (Example 4); type: cell-based; conditions: ATCC 29213 / MSSA
S. pneumoniae ATCC 49619 = test: MIC/MBC testing (Example 5); type: cell-based
S. aureus ATCC 29213 = test: MIC/MBC testing (Example 5); type: cell-based
Candida parapsilosis = test: Broth microdilution MIC, yeast and fungi (Example 1); type: cell-based; conditions: Lodderomyces parapsilosis, ATCC22019, Example 1, isolate MMX 2323 (ATCC 22019)
[3] = Analysis of intestinal contents, plasma and brains after oral CBD or CBD-glycosides (Example 3); type: in vivo; conditions: mouse, oral gavage; 2 hours; data not shown
Description: In order to investigate the metabolism and decoupling of CBD-glycosides in the large intestine, an aqueous solution of a mixture of CBD-glycosides was administered to a mouse by oral gavage. As a control, a solution of CBD in cremophor, ethanol, and saline was administered to a second mouse. The animals were each sacrificed at 2 hours. Following termination and tissue harvest, the intestinal contents were then extracted and analyzed by C18 reverse phase HPLC. The mice employed in this example were eight week old male Swiss mice fasted for 12 hours prior to administration of the solutions.
The resulting extracts were analyzed by LCMS performed using a Shimadzu LC-MS 2010 EV. Electrospray ionization (ESI) was performed in negative mode. The column was a Silia Chrom XDB C18 5 um, 150 A, 4.6×50 mm. The method was 12 min 5 to 95 H2O:ACN. Acetic acid and formic acid were used as sample additives during analysis, and the injection volume was 20 μl.

[4] = Compound precipitation in uninoculated solubility controls (Example 1); type: physicochemical; parameters: key to precipitation observed (type): NA: not applicable (no precipitation observed); TRP: trace precipitate; DCP: distinct precipitate
Description: Plates were stacked 3-4 high, covered with a lid on the top plate, placed in plastic bags, and incubated at 35° C. for approximately 16 to 20 hr (aerobes), 20 to 24 hr (Streptococcus), and 24 and 48 hr (fungi). Anaerobe plates were stacked, covered with a lid on the top plate, placed in a BD GasPak EZ Anaerobe Container System and incubated at 35° C. for 48 hr. Following incubation, the microplates were removed from the incubator and viewed from the bottom using a plate viewer. […] The MIC was read and recorded as the lowest concentration of drug that inhibited visible growth of the organism.

S. aureus MMX 757 = test: MIC/MBC testing (Example 5); type: cell-based
Pseudomonas aeruginosa = test: Broth microdilution MIC, aerobic bacteria (Example 1); type: cell-based
Anaerobic Bacteria = test: Broth microdilution MIC, text summary (Example 1); type: cell-based
Escherichia coli = test: Broth microdilution MIC, aerobic bacteria (Example 4); type: cell-based; conditions: ATCC25922
[5] = test system: Staphylococcus aureus (MRSA); test: microbe, parasite or virus in culture; type: cell-based; conditions: Staphylococcus aureus, MRSA
[6] = test system: Staphylococcus aureus (MSSA); test: Broth microdilution MIC, aerobic bacteria (Example 1); type: cell-based; conditions: Staphylococcus aureus, ATCC 29213 / MSSA, isolate MMX 100 (ATCC 29213), read-out: MIC
Bacteroides fragilis = test: Broth microdilution MIC, anaerobic bacteria (Example 1); type: cell-based; conditions: Bacteroides fragilis
Clostridium difficile = test: Broth microdilution MIC, anaerobic bacteria (Example 4); type: cell-based; conditions: Clostridioides difficile
[7] = Compound precipitation in uninoculated solubility controls (Example 4); type: physicochemical
Description: Un-inoculated solubility control plates for each test media and drug were incubated in parallel with test plates and observed for evidence of drug precipitation. MICs were read where visible growth of the organism was inhibited.

Lactobacillus jensenii = test: Broth microdilution MIC, anaerobic bacteria (Example 1); type: cell-based; conditions: Lactobacillus jensenii
E. faecalis ATCC 29212 = test: MIC/MBC testing (Example 5); type: cell-based
Acinetobacter baumannii = test: Broth microdilution MIC, aerobic bacteria (Example 1); type: cell-based
[8] = Streptococcus pneumoniae, ATCC49619
[9] = ratios of 1-4 are indicative of bactericidal activity
[10] = Staphylococcus aureus, ATCC29213
[11] = Enterococcus faecalis, ATCC29212

C=C(C)[C@@H]1CCC(C)=C[C@H]1c1c(O)cc(CCCCC)cc1O [CBD, cannabidiol]
MIC [1]: 2 µg/mL (≈ 6.36 µM) | MIC [2]: 2 µg/mL (≈ 6.36 µM) | MBC (S. pneumoniae ATCC 49619; [8]): 4 µg/mL (≈ 12.7 µM) | MIC (S. pneumoniae ATCC 49619; [8]): 1 µg/mL (≈ 3.18 µM) | MBC:MIC (S. pneumoniae ATCC 49619; [9]): 4 | MBC (S. aureus ATCC 29213; [10]): 2 µg/mL (≈ 6.36 µM) | MIC (S. aureus ATCC 29213; [10]): 1 µg/mL (≈ 3.18 µM) | MBC:MIC (S. aureus ATCC 29213; [9]): 2 | MIC (Candida parapsilosis; 24 hr, read-out: MIC at 24 hr): > 256 µg/mL | MIC (Candida parapsilosis; 48 hr, read-out: MIC at 48 hr): > 256 µg/mL | presence of CBD in plasma and brains (HPLC) [3]: CBD was only present in the control animal that received CBD aglycone | lowest concentration at which precipitation was observed ([4]; MHB II): 16 µg/mL | precipitation observed (type) ([4]; MHB II): TRP | lowest concentration at which precipitation was observed ([4]; MHB II with Blood): 128 µg/mL | precipitation observed (type) ([4]; MHB II with Blood): TRP | MBC (S. aureus MMX 757; Staphylococcus aureus, MMX757): 1 µg/mL (≈ 3.18 µM) | MIC (S. aureus MMX 757; Staphylococcus aureus, MMX757): 1 µg/mL (≈ 3.18 µM) | MBC:MIC (S. aureus MMX 757; [9]): 1 | effect on the gram-negative pathogen (Pseudomonas aeruginosa; Example 1 summary of findings, Pseudomonas): did not have any effect | MIC (Pseudomonas aeruginosa; Pseudomonas aeruginosa, Example 1, isolate MMX 1380, read-out: MIC): > 256 µg/mL | MICs (range over anaerobic bacteria) (Anaerobic Bacteria): 2 to 64 µg/mL | MIC (Escherichia coli): > 128 µg/mL | MIC [5]: 2 µg/mL (≈ 6.36 µM) | IC50 ([5]; read-out: inhibits the growth (IC50)): 2 µg/mL (≈ 6.36 µM) | MIC [6]: 2 µg/mL (≈ 6.36 µM) | MIC (Bacteroides fragilis; ATCC5285): 32 µg/mL (≈ 102 µM) | IC50 (Bacteroides fragilis; Example 1 summary of findings, read-out: inhibits the growth (IC50)): 32 µg/mL (≈ 102 µM) | MIC (Clostridium difficile; ATCC700057, Example 4, isolate MMX 4381 (ATCC 700057)): 64 µg/mL (≈ 204 µM) | MIC (Clostridium difficile; Example 4, isolate MMX 8330): 64 µg/mL (≈ 204 µM) | MIC (Clostridium difficile; Example 4, isolate MMX 8333): 64 µg/mL (≈ 204 µM) | precipitation observed (type) ([7]; Brucella Broth): none | precipitation observed (type) ([7]; MHB II): none | precipitation observed (type) ([7]; MHB II with Blood): none | precipitation observed (type) ([7]; RPMI): none | MIC (Lactobacillus jensenii; Example 1, isolate MMX 4149, read-out: MIC): 64 µg/mL (≈ 204 µM) | IC50 (Lactobacillus jensenii; Example 1 summary of findings, read-out: inhibits the growth (IC50 values)): 64 µg/mL (≈ 204 µM) | MBC (E. faecalis ATCC 29212; [11]): 2 µg/mL (≈ 6.36 µM) | MIC (E. faecalis ATCC 29212; [11]): 2 µg/mL (≈ 6.36 µM) | MBC:MIC (E. faecalis ATCC 29212; [9]): 1 | MIC (Acinetobacter baumannii; Acinetobacter baumannii): > 256 µg/mL | effect on the gram-negative pathogen (Acinetobacter baumannii; Example 1 summary of findings, Acinetobacter): did not have any effect
